Measurements as given in patent US20170107235A1, “PYRROLOBENZ[…] FOR TREATING LYMPHOMA” (ADC PRODUCTS (UK) LIMITED, priority 2014, published 2017).
Several values for one entry are separate records, joined by “and”; a condition that tells them apart may be missing. Equal values may be shown once.

System: dogs with spontaneous malignancies (lymphoma)
Assay: Phase Ia clinical trial of SG2000 in dogs with spontaneous malignancies (lymphoma patients)
Format: in vivo
Design: key to Response during first cycle / Response to SG2000: Complete response (CR) is defined as the disappearance of all target lesions; Partial response (PR) is defined as a >30% decrease in the sum of the longest dimensions of the target lesions; Progressive disease (PD) is defined as a >20% increase in the sum of the longest dimensions of the target lesions; Stable Disease (SD) is defined as neither sufficient shrinkage to qualify for PR nor sufficient increase to qualify for PD
Experimental: A Phase Ia clinical trial in dogs with spontaneous malignancies was undertaken at the Royal Veterinary College, University of London, UK.
was supplied in 5 mL vials, wherein each mL contains 10 micrograms of SG2000 and 47.1 mg of dimethylacetamide. For doses below 100 microgram, the required volume of SG2000 was diluted to 10 ml with normal saline (0.9% sodium chloride) prior to administration. If the total dose exceeds 100 micrograms, the supplied solution was used without prior dilution with normal saline.
SG2000 was administered as a slow intravenous infusion into a peripheral vein. The drug was be administered slowly IV over 20 minutes via a peripheral vein catheter. If the drug has been diluted to a total volume of 10 ml, this will mean injecting 0.5 ml per minute.
The following concomitant/supportive medications permitted during the trial were:
The following definitions are used in reporting the results:
Complete response (CR) is defined as the disappearance of all target lesions.
Partial response (PR) is defined as a >30% decrease in the sum of the longest dimensions of the target lesions, taking as a reference the baseline sum longest dimensions.
Progressive disease (PD) is defined as a >20% increase in the sum of the longest dimensions of the target lesions, taking as a reference the smallest sum of the longest dimensions recorded since the treatment started, or the appearance of 1 or more new lesions.
Stable Disease (SD) is defined as neither sufficient shrinkage to qualify for PR nor sufficient increase to qualify for PD, taking as a reference the smallest sum of the longest dimensions since the treatment started.
Objective Response Rate (ORR) is defined as the number of patients with confirmed complete or partial responses, expressed as a percentage of all patients treated with SG2000
Time to Progression (TTP) is defined as the period of time from first date of treatment to the date that the patient is withdrawn because of clinical or imaging-based progressive disease, or death from any cause (including euthanasia).
“Duration of Response” is defined for patients with an objective response only.
This patient, diagnosed with multicentric B-cell high grade lymphoma, had been previously treated with 5 protocols. This patient was treated for a first cycle (3 weeks) with IV 1.75 μg/kg SG2000 solution with a single weekly dose. […] The second cycle of treatment followed with IV 2.00 μg/kg SG2000 with a single weekly dose. The third cycle of weekly dosing was begun after a single week break, with doses of 2.00 μg/kg SG2000, 1.75 μg/kg SG2000 and 2.00 μg/kg SG2000.
Patients 2 to 9 were treated as follows, with the stated amount of SG2000 (μg/kg), with a 3 weekly cycle of weekly treatments, and a single break week between cycles.
Patients 2, 4-5 were diagnosed with multicentric B-cell high grade lymphoma, Patients 3, 8 and 9 were diagnosed with multicentric B-cell intermediate grade lymphoma and Patient 6 was diagnosed with multicentric T-cell high grade lymphoma. Patient 7 was diagnosed with multicentric and mediastinal high grade lymphoma, which was suspected to be to be T-cell lymphoma.

[1] = Patient 1, dog, multicentric B-cell high grade lymphoma
[2] = Patient 1, dog, multicentric B-cell high grade lymphoma, IV 1.75-2.00 μg/kg weekly, 3 cycles
[3] = dogs with multicentric lymphoma, Patients 2 to 9, IV 1.5-2 μg/kg weekly

C=C1C[C@H]2C=Nc3cc(OCCCOc4cc5c(cc4OC)C(=O)N4CC(=C)C[C@H]4C=N5)c(OC)cc3C(=O)N2C1 [SG2000]
Progression free interval with treatment [1]: 111 days
Survival time since the start of the SG2000 trial [1]: 126 days
Patient response at the end of the planned 3 cycles [2]: PD (Progressive disease (PD) is defined as a >20% increase in the sum of the longest dimensions of the target lesions)
Toxicity at the end of the planned 3 cycles [2]: grade 4 anaemia
Disease course in the planned three week break after first cycle (Patient 1, dog, multicentric B-cell high grade lymphoma, after first cycle IV 1.75 μg/kg weekly): the disease progressed
Response during first cycle (Patient 1, dog, multicentric B-cell high grade lymphoma, first cycle (3 weeks) IV 1.75 μg/kg single weekly dose): SD
Survival time from diagnosis (Patient 1, dog, multicentric B-cell high grade lymphoma, previously treated with 5 protocols): 408 days
Progression free interval [3]: 10 d (2×) and 56 d and 54 d and 7 d and 158 d and 43 d
Survival time from SG2000 start [3]: 24 days and 74 days and 16 days and 95 days and 8 days and 195 days and 49 days
Survival time from diagnosis [3]: 31 days and 186 days and 252 days and 336 days and 141 days and 811 days and 138 days
Response to SG2000 (dogs with multicentric lymphoma, Patients 2 to 9, IV 1.5-2 μg/kg weekly, 3 weekly cycles): PD (Progressive disease (PD) is defined as a >20% increase in the sum of the longest dimensions of the target lesions) (3×) and SD (2×) and PR (Partial response (PR) is defined as a >30% decrease in the sum of the longest dimensions of the target lesions) (2×) and CR
